# Laboratory results reported in patent publication US20240024403A1, “Compositions and Methods for Managing Weight” (Unigen, Inc., priority 2012, published 2024).
# Where “and” joins values, the source holds several entries; their conditions need not be identical. Identical values can stand only once. Entries after “also recorded” stand apart in the source; their conditions may differ.
# What was measured:
# [1] = High fat diet induced obesity (DIO) rat model; type: in vivo, Spraue-Dawley rats; set-up: NASH (sum) / NSAH (sum): scale not given here; Epididymal fatty tissue weight / Retroperitoneal fatty tissue weight / Total Fat / Epididymal Fat, absolute weight / Retroperitoneal Fat, absolute weight: unit not given here
# Method: Male Spraue-Dawley rats, age 4-6 weeks (OrientBio, Inc.; Seongnam, Korea) were housed individually in Polycarbonate cages in a room with a 12 hr:12 hr light-dark cycle and an ambient temperature of 24° C. All the rats were fed a commercial chow diet for 1 week after arrival in the animal facility. Rats were then divided into normal and obesity groups and fed with normal diet (ND) and high fat diets (HFD) respectively. The HFD group was divided into multiple treatment groups: a high fat diet vehicle group (HFD), an orlistat (purchased as OTC drug Alli®) positive control treatment group (ORI, 80 mg/kg of animal weight, 2 times/day). In some examples, sibutramine was used as a positive control (SIB, 3 mg/kg for rat studies and […] for mice studies).
# Body weight was measured once or twice per week and feed intake was measured twice per week. Body weight gain was determined for each study group by measurement of the body weight difference for each study group between each successive week of the study. At the end of the experimental period, following a 12-h fasting period, the animals were anesthetized with ether, and blood was drawn from the abdominal vein. Liver and kidney and adipose tissues (epididymal, retroperitoneal, perirenal adipose tissues) were removed from each animal, rinsed with physiological saline, and weighted. Serum concentrations of glucose, total cholesterol and LDL-cholesterol were determined using automatic analyzer (INTEGRA 400, Roche, Germany). Statistical significance of test results was performed by Student's t-test.
# [2] = test system: ghrelin; test: Plasma active ghrelin level in DIO mice (ELISA); type: in vivo
# Method: Obese mice were treated with various three component compositions to test the anti-obesity and appetite effects of such compositions. Three component Composition 1 (Magnolia:Morus:Yerba Mate) produced according to the Example 38, three component Composition 2 (Magnolia:Morus:Mutamba) produced according to the Example 42, three component Composition 3 (Morus: Rosemary:Yerba Mate) produced according to the Example 39, and three component Composition 9 (Morus:Rosemary:Areca) produced according to the Example 41, were each separately administrated orally to DIO mice as described in the Example 48. The high fat diet (HFD) mice were divided into multiple treatment groups with a total of 10 animals per group. The mice were treated with one of the following: Composition 1 (1300 mg/kg/day), Composition 2 (1300 mg/kg/day), Composition 3 (1700 mg/kg/day), or Composition 9 (1700 mg/kg/day). Control groups included a normal diet group given vehicle only (ND, negative control), a high fat diet group given vehicle only (HFD, negative control), an orlistat group (ORI, 40 mg/kg, 2 times/day, positive control), and a sibutramine group (10 mg/kg, 1 time/day, positive control). Body weight and feed intake were measured daily for 2 weeks after treatment and then twice a week until the end of the 7 week study. At week 2 and week 7 after treatment, mice were fasted for 16 hours and then five animals were examined to measure plasma concentrations of leptin and ghrelin. Leptin and ghrelin levels were measured by using commercial ELISA kits specific for leptin or ghrelin (Millipore Co., Billerica, MA) according to the manufacturer's instructions. Measurements were taken using a microplate reader (Victor™ X3, PerkinElmer Inc., USA) and analyzed with PerkinElmer 2030 workstation computer software.
# [3] = 14-day study in high-fat-diet fed C57BL/6J mice; type: in vivo; settings: 30 mg/kg daily oral, 14 days
# Text: A 14-day study was used to evaluate the effect of Mutamba EtOH extract fraction 84/F6 on body weight gain in high-fat-diet (HFD) fed C57BL/6J mice. Male C57BL/6J mice at the age of 6 weeks were purchased from Charles River Laboratories (Wilmington, MA) and acclimated for one week. On the day 0 (treatment start), body weights were taken for all the mice and randomly assigned to a group of four treatment groups as follows: (1) 8 mice/group received positive control=Alli; (2) 15 mice/group received Mutamba fraction 84/F6; (3) 8 mice/group received vehicle only (0.5% carboxymethyl cellulose) given to HFD control; and (4) 8 mice/group received vehicle only given to untreated normal diet control. Mice received a daily oral dose of Alli at 30 mg/kg and Mutamba 84/F6 at 1 g/kg for 14 days. Once mice received their first respective dose, they were provided ad libitum a 60% kcal high fat-diet, except for the normal diet group. Body weights were taken daily for the duration of study except on weekends. […] Blood glucose levels were measured using the Contour blood glucose monitoring kit (Bayer Health Care). Total triglyceride and cholesterol levels were measured using the CardioChek Analyzer with PTS panel test strips (Polymer Technology System, Inc, Indianapolis, IN).
# [4] = DIO rats, ORI 80 mg/kg, 55 day study, mean
# [5] = DIO rats, blood at end of study, ORI 80 mg/kg, mean
# [6] = DIO rats, liver pathology, ORI 80 mg/kg, mean
# [7] = DIO rats, liver pathology score, ORI group, mean
smiles,measurement,setting,value
"CCCCCCCCCCC[C@@H](C[C@@H]1OC(=O)[C@H]1CCCCCC)OC(=O)[C@H](CC(C)C)NC=O [ORI, orlistat]",Body Weight Gain,[1]; [4],1.22 g/day
same,Food Intake,[1]; [4],25.71 g/day
same,Food Efficiency Ratio (FER),"[1]; DIO rats, ORI 80 mg/kg, 55 day study, body weight gain/food intake",0.05
same,Weight Gain,"[1]; DIO rats, ORI 80 mg/kg, day 3, mean",2.80
same,Weight Gain,"[1]; DIO rats, ORI 80 mg/kg, day 7, mean",1.04
same,Weight Gain,"[1]; DIO rats, ORI 80 mg/kg, day 10, mean",0.82
same,Weight Gain,"[1]; DIO rats, ORI 80 mg/kg, day 14, mean",3.40
same,Weight Gain,"[1]; DIO rats, ORI 80 mg/kg, day 17, mean",3.34
same,Weight Gain,"[1]; DIO rats, ORI 80 mg/kg, day 21, mean",15.89
same,Weight Gain,"[1]; DIO rats, ORI 80 mg/kg, day 24, mean",19.89
same,Weight Gain,"[1]; DIO rats, ORI 80 mg/kg, day 28, mean",28.19
same,Weight Gain,"[1]; DIO rats, ORI 80 mg/kg, day 31, mean",33.33
same,Weight Gain,"[1]; DIO rats, ORI 80 mg/kg, day 35, mean",38.43
same,Weight Gain,"[1]; DIO rats, ORI 80 mg/kg, day 37, mean",43.95
same,Weight Gain,"[1]; DIO rats, ORI 80 mg/kg, day 42, mean",49.06
same,Weight Gain,"[1]; DIO rats, ORI 80 mg/kg, day 45, mean",59.88
same,Weight Gain,"[1]; DIO rats, ORI 80 mg/kg, day 49, mean",63.68
same,Weight Gain,"[1]; DIO rats, ORI 80 mg/kg, day 52, mean",71.12
same,Weight Gain,"[1]; DIO rats, ORI 80 mg/kg, day 55, mean",68.11
same,Epididymal fatty tissue weight,"[1]; DIO rats, ORI 80 mg/kg, mean",17.87
same,Perirenal fatty tissue weight,"[1]; DIO rats, ORI 80 mg/kg, mean",6.11
same,Retroperitoneal fatty tissue weight,"[1]; DIO rats, ORI 80 mg/kg, mean",19.21
same,Total Fat,"[1]; DIO rats, ORI 80 mg/kg, sum of epididymal, retroperitoneal and perirenal fat",43.19
same,ALP,[1]; [5],480.16 U/L
same,ALT,[1]; [5],35.65 U/L
same,AST,[1]; [5],146.39 U/L
same,LDL-C,[1]; [5],10.63 mg/dL
same,T-chol,[1]; [5],110.13 mg/dL
same,TG,[1]; [5],216.38 mg/dL
same,Hepatocellular ballooning (0-2),[1]; [6],0.675 and 0.625
same,Lobular Inflammation (0-3),[1]; [6],1.500
same,NASH (sum),[1]; [6],2.875
same,Steatosis (0-3),[1]; [6],0.750
same,"Epididymal Fat, absolute weight","[1]; DIO rats, ORI group, mean",17.87
same,FER (Food efficiency ratio),"[1]; DIO rats, ORI group, mean",0.05
same,Food Intake,"[1]; DIO rats, ORI group, mean",25.71 g/day
same,LDL-C,"[1]; DIO rats, ORI group, mean",10.63 mg/dL
same,"Perirenal Fat, absolute weight","[1]; DIO rats, ORI group, mean",6.11
same,"Retroperitoneal Fat, absolute weight","[1]; DIO rats, ORI group, mean",19.21
same,T-chol,"[1]; DIO rats, ORI group, mean",110.13 mg/dL
same,TG,"[1]; DIO rats, ORI group, mean",216.38 mg/dL
same,Total Fat,"[1]; DIO rats, ORI group, mean",43.19
same,Weight Gain,"[1]; DIO rats, ORI group, mean",1.22 g/day
same,Weight Gain,"[1]; DIO rats, day 3, ORI group, mean",2.80
same,Weight Gain,"[1]; DIO rats, day 7, ORI group, mean",1.04
same,Weight Gain,"[1]; DIO rats, day 10, ORI group, mean",0.82
same,Weight Gain,"[1]; DIO rats, day 14, ORI group, mean",3.40
same,Weight Gain,"[1]; DIO rats, day 17, ORI group, mean",3.34
same,Weight Gain,"[1]; DIO rats, day 21, ORI group, mean",15.89
same,Weight Gain,"[1]; DIO rats, day 24, ORI group, mean",19.89
same,Weight Gain,"[1]; DIO rats, day 28, ORI group, mean",28.19
same,Weight Gain,"[1]; DIO rats, day 31, ORI group, mean",33.33
same,Weight Gain,"[1]; DIO rats, day 35, ORI group, mean",38.43
same,Weight Gain,"[1]; DIO rats, day 37, ORI group, mean",43.95
same,Weight Gain,"[1]; DIO rats, day 42, ORI group, mean",49.06
same,Weight Gain,"[1]; DIO rats, day 45, ORI group, mean",59.88
same,Weight Gain,"[1]; DIO rats, day 49, ORI group, mean",63.68
same,Weight Gain,"[1]; DIO rats, day 52, ORI group, mean",71.12
same,Weight Gain,"[1]; DIO rats, day 55, ORI group, mean",68.11
same,Hepatocellular ballooning (0-2),[1]; [7],0.625
same,Lobular Inflammation (0-3),[1]; [7],1.500
same,NSAH (sum),[1]; [7],2.875
same,Steatosis (0-3),[1]; [7],0.750
same,blood biochemistry parameters vs HFD group,"[1]; orlistat 80 mg/kg, 2 times/day",no statistically significant decreases in any of the measured blood components; also recorded: did not show any statistically significant decreases in any of the measured blood chemistry components
same,body weight gain vs HFD group,"[1]; orlistat 80 mg/kg, 2 times/day",statistically significant decreases in body weight gain on day 7 through to day 55
same,liver pathology (NASH score) vs HFD group,"[1]; orlistat 80 mg/kg, 2 times/day","statistically significant decreases in Steatosis, Lobular Inflammation, Hepatocellular ballooning and NASH score"
same,organ and fat pad weights vs HFD group,"[1]; orlistat 80 mg/kg, 2 times/day","statistically significant decreases in all categories of fat measurement; also recorded: statistically significant decreases in Epididymal Fat, Retroperitoneal Fat, Perirenal Fat and Total Fat"
same,"weight gain per day, food intake per day, food efficiency ratio (FER) vs HFD group","[1]; orlistat 80 mg/kg, 2 times/day","statistically lower values than the HFD group for average Body Weight Gain per day, average Food Intake per day and Food Efficiency Ratio"
same,Active Ghrelin (pg/ml) 2-week,"[2]; DIO mice plasma, 2-week treatment",1316.4 pg/mL
same,Active Ghrelin (pg/ml) 7-week,"[2]; DIO mice plasma, 7-week treatment",1353.7 pg/mL
same,active ghrelin level vs HFD group,"[2]; week 2 and week 7, orlistat 40 mg/kg 2 times/day, sibutramine 10 mg/kg 1 time/day",no effect on active ghrelin levels at either week 2 or week 7
same,body weight gain vs vehicle treated HFD group,[3],decrease in weight gain only on day 14 of treatment
same,"fasting blood glucose, total cholesterol, triglyceride vs vehicle treated HFD group",[3],statistically significant higher levels of fasting triglyceride
